# Measured values taken from patent publication US20080090805A1, “CB-1 MODULATING COMPOUNDS AND THEIR USE” (ACADIA PHARMACEUTICALS INC., priority 2005, published 2008).
# Biological target: CB1 (mutant) (Homo sapiens, UniProt P21554)
# Assay: R-SAT functional receptor assay, CB1 (mutant, truncated after amino acid 417)
# Type: cell-based
# Conditions: Appendix A; R-SAT CB1; receptor form (mutant or wild-type) not stated
# Sequence of CB1 (mutant) (P21554 1-417, change not shown): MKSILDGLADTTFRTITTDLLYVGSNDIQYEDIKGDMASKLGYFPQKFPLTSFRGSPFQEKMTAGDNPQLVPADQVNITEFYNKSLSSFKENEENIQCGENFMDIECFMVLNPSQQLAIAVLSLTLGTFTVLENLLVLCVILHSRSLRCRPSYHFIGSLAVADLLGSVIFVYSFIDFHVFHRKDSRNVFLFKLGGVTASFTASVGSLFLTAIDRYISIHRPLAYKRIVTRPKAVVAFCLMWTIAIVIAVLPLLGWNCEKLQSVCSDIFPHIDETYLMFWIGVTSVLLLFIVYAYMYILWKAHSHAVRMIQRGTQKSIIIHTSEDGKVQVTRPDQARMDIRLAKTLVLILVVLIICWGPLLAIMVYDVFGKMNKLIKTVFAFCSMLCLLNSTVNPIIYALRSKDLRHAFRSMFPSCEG
row,pIC50,SMILES
1,1.0,CCONC(=O)c1ccc2c(c1)N=C(c1ccccn1)c1ccccc1S2
2,8.5,O=C(NCc1cccs1)c1ccc2c(c1)N=C(c1cccc(F)c1)c1ccccc1S2 [drawing 593]
3,1.0,CON(C)C(=O)c1ccc2c(c1)N=C(c1ccc(Cl)cc1Cl)c1ccccc1S2
4,8.1,O=C(NCc1cccc(Cl)c1)c1ccc2c(c1)N=C(c1ccc(F)cc1)c1ccccc1S2 [drawing 747]

# Same assay, conditions: Appendix A; R-SAT CB1; receptor form (mutant or wild-type) not stated; read-out: pIC50 (converted)
row,IC50 [nM],SMILES
1,50.1,CCCC1=Nc2cc(C(=O)NCCc3ccc(OC)cc3OC)ccc2Sc2ccccc21 [drawing 570]
2,79.4,O=C(NC1CCCC1)c1ccc2c(c1)N=C(c1cccc(F)c1)c1ccccc1S2 [drawing 742]
3,63.1,CCONC(=O)c1ccc2c(c1)N=C(c1ccc(F)cc1)c1ccccc1S2
4,3.98,CC(C)CNC(=O)c1ccc2c(c1)N=C(c1ccc(Cl)cc1F)c1ccccc1S2 [drawing 613]
5,6.31,CC(C)CNC(=O)c1ccc2c(c1)N=C(c1ccc(F)cc1)c1ccccc1S2 [drawing 677]
6,50.1,CCCC1=Nc2cc(C(=O)NCCCOCC)ccc2Sc2ccccc21
7,39.8,CCCNC(=O)c1ccc2c(c1)N=C(c1ccccn1)c1ccccc1S2
8,501,CONC(=O)c1ccc2c(c1)N=C(c1cccc(Br)c1)c1ccccc1S2
9,25.1,O=C(NCCc1ccccn1)c1ccc2c(c1)N=C(c1ccc(Cl)cc1)c1ccccc1S2 [drawing 1005]
10,10,O=C(NC1CCC(F)(F)CC1)c1ccc2c(c1)N=C(c1ccc(Cl)s1)c1ccccc1S2 [drawing 767]
11,50.1,O=C(NCCc1ccccn1)c1ccc2c(c1)N=C(c1ccc(Cl)cc1F)c1ccccc1S2 [drawing 562]
12,15.8,CCCCNS(=O)(=O)c1ccc2c(c1)N=C(c1ccc(Cl)cc1)c1ccccc1S2 [drawing 875]
13,251,CCCCCC1=Nc2cc(C(=O)NN3CCCCC3)ccc2Sc2ccccc21
14,10,C[C@@H]1CCC[C@H](C)N1NC(=O)c1ccc2c(c1)N=C(c1ccc(Cl)cc1F)c1ccccc1S2 [drawing 811]
15,63.1,COc1ccc(C2=Nc3cc(C(=O)NCc4ccccn4)ccc3Sc3ccccc32)cc1
16,63.1,CCCCNC(=O)c1ccc2c(c1)N=C(c1ccc(Cl)cc1)c1ccccc1S2(=O)=O

row,IC50 [nM],SMILES
1,79.4,CCOCCNC(=O)c1ccc2c(c1)N=C(c1ccc(OC)cc1)c1ccccc1S2
2,15.8,CC(C)NC(=O)c1ccc2c(c1)N=C(c1cccc(Cl)c1)c1ccccc1S2 [drawing 921]
3,251,O=C(NCCc1ccncc1)c1ccc2c(c1)N=C(c1ccccn1)c1ccccc1S2
4,3.16,O=C(NCc1ccc(F)cc1)c1ccc2c(c1)N=C(C1CCCCC1)c1ccccc1S2 [drawing 591]
5,316,CN(NC(=O)c1ccc2c(c1)N=C(c1ccccc1F)c1ccccc1S2)C1CCCCC1
6,501,CCCNC(=O)c1ccc2c(c1)N=C(c1ncccc1C)c1ccccc1S2
7,> 1260,Cc1cc(NC(=O)c2ccc3c(c2)N=C(c2cccc(F)c2)c2ccccc2S3)no1
8,10,CCCCNC(=O)c1ccc2c(c1)N=C(c1ccc(Cl)c(F)c1)c1ccccc1S2 [drawing 769]
9,2.51,CC(C)CCNC(=O)c1ccc2c(c1)N=C(c1cccc(Cl)c1)c1ccccc1S2 [drawing 567]
10,50.1,COc1cccc(C2=Nc3cc(C(=O)NCc4ccc(C)o4)ccc3Sc3ccccc32)n1 [drawing 554]
11,50.1,O=C(Cc1ccccc1)NNC(=O)c1ccc2c(c1)N=C(c1ccc(Cl)cc1)c1ccccc1S2 [drawing 588]
12,50.1,O=C(NCc1ccccn1)c1ccc2c(c1)N=C(c1ccc(Br)cc1)c1ccccc1S2 [drawing 612]
13,10,O=C(NCc1ccccc1)c1ccc2c(c1)N=C(c1ccc(F)cc1)c1ccccc1S2 [drawing 759]
14,31.6,O=C(NN1CCCCCC1)c1ccc2c(c1)N=C(c1ccc(Cl)cc1)c1ccccc1S2 [drawing 1041]
15,63.1,CCCCN(C)C(=O)c1ccc2c(c1)N=C(c1ccc(Cl)cc1)c1ccccc1S2
16,63.1,CCCC1=Nc2cc(C(=O)NC(C)c3ccccc3)ccc2Sc2ccccc21 (centres unmarked)

row,SMILES,IC50 [nM]
1,CCCC1=Nc2cc(C(=O)NCCCN(CC)CC)ccc2Sc2ccccc21,2510

# Same assay, conditions: Appendix A; R-SAT CB1; receptor form not stated; relative to SR141716 (100%)
row,% Inhibition [%],SMILES
1,92,O=C(NCCc1ccccn1)c1ccc2c(c1)N=C(c1ccc(Cl)cc1)c1ccccc1S2 [drawing 1005]
2,93,O=C(NCc1cccs1)c1ccc2c(c1)N=C(c1cccc(F)c1)c1ccccc1S2 [drawing 593]
3,96,O=C(NN1CCCCCC1)c1ccc2c(c1)N=C(c1ccc(Cl)cc1)c1ccccc1S2 [drawing 1041]
4,106,O=C(NCc1cccc(Cl)c1)c1ccc2c(c1)N=C(c1ccc(F)cc1)c1ccccc1S2 [drawing 747]

# Same assay, conditions: Appendix A; R-SAT CB1; receptor form not stated; relative to SR141716 (100%); read-out: % Inhibition
row,Emax [%],SMILES
1,101,CCCC1=Nc2cc(C(=O)NCCc3ccc(OC)cc3OC)ccc2Sc2ccccc21 [drawing 570]
2,100,O=C(NC1CCCC1)c1ccc2c(c1)N=C(c1cccc(F)c1)c1ccccc1S2 [drawing 742]
3,3,CCONC(=O)c1ccc2c(c1)N=C(c1ccccn1)c1ccccc1S2
4,98,CCONC(=O)c1ccc2c(c1)N=C(c1ccc(F)cc1)c1ccccc1S2
5,110,CC(C)CNC(=O)c1ccc2c(c1)N=C(c1ccc(Cl)cc1F)c1ccccc1S2 [drawing 613]
6,107,CC(C)CNC(=O)c1ccc2c(c1)N=C(c1ccc(F)cc1)c1ccccc1S2 [drawing 677]
7,92,CCCC1=Nc2cc(C(=O)NCCCOCC)ccc2Sc2ccccc21
8,116,CCCNC(=O)c1ccc2c(c1)N=C(c1ccccn1)c1ccccc1S2
9,73,CONC(=O)c1ccc2c(c1)N=C(c1cccc(Br)c1)c1ccccc1S2
10,71,O=C(NC1CCC(F)(F)CC1)c1ccc2c(c1)N=C(c1ccc(Cl)s1)c1ccccc1S2 [drawing 767]
11,96,O=C(NCCc1ccccn1)c1ccc2c(c1)N=C(c1ccc(Cl)cc1F)c1ccccc1S2 [drawing 562]
12,106,CCCCNS(=O)(=O)c1ccc2c(c1)N=C(c1ccc(Cl)cc1)c1ccccc1S2 [drawing 875]
13,100,CCCCCC1=Nc2cc(C(=O)NN3CCCCC3)ccc2Sc2ccccc21
14,103,C[C@@H]1CCC[C@H](C)N1NC(=O)c1ccc2c(c1)N=C(c1ccc(Cl)cc1F)c1ccccc1S2 [drawing 811]
15,93,COc1ccc(C2=Nc3cc(C(=O)NCc4ccccn4)ccc3Sc3ccccc32)cc1
16,106,CCCCNC(=O)c1ccc2c(c1)N=C(c1ccc(Cl)cc1)c1ccccc1S2(=O)=O

row,Emax [%],SMILES
1,90,CCOCCNC(=O)c1ccc2c(c1)N=C(c1ccc(OC)cc1)c1ccccc1S2
2,118,CC(C)NC(=O)c1ccc2c(c1)N=C(c1cccc(Cl)c1)c1ccccc1S2 [drawing 921]
3,18,CON(C)C(=O)c1ccc2c(c1)N=C(c1ccc(Cl)cc1Cl)c1ccccc1S2
4,51,O=C(NCCc1ccncc1)c1ccc2c(c1)N=C(c1ccccn1)c1ccccc1S2
5,102,O=C(NCc1ccc(F)cc1)c1ccc2c(c1)N=C(C1CCCCC1)c1ccccc1S2 [drawing 591]
6,74,CN(NC(=O)c1ccc2c(c1)N=C(c1ccccc1F)c1ccccc1S2)C1CCCCC1
7,63,CCCNC(=O)c1ccc2c(c1)N=C(c1ncccc1C)c1ccccc1S2
8,29,Cc1cc(NC(=O)c2ccc3c(c2)N=C(c2cccc(F)c2)c2ccccc2S3)no1
9,106,CCCCNC(=O)c1ccc2c(c1)N=C(c1ccc(Cl)c(F)c1)c1ccccc1S2 [drawing 769]
10,115,CC(C)CCNC(=O)c1ccc2c(c1)N=C(c1cccc(Cl)c1)c1ccccc1S2 [drawing 567]
11,84,COc1cccc(C2=Nc3cc(C(=O)NCc4ccc(C)o4)ccc3Sc3ccccc32)n1 [drawing 554]
12,85,O=C(Cc1ccccc1)NNC(=O)c1ccc2c(c1)N=C(c1ccc(Cl)cc1)c1ccccc1S2 [drawing 588]
13,90,O=C(NCc1ccccn1)c1ccc2c(c1)N=C(c1ccc(Br)cc1)c1ccccc1S2 [drawing 612]
14,96,O=C(NCc1ccccc1)c1ccc2c(c1)N=C(c1ccc(F)cc1)c1ccccc1S2 [drawing 759]
15,92,CCCCN(C)C(=O)c1ccc2c(c1)N=C(c1ccc(Cl)cc1)c1ccccc1S2
16,97,CCCC1=Nc2cc(C(=O)NC(C)c3ccccc3)ccc2Sc2ccccc21 (centres unmarked)

row,SMILES,Emax [%]
1,CCCC1=Nc2cc(C(=O)NCCCN(CC)CC)ccc2Sc2ccccc21,125
